Target: T1, OATP1B1 (Homo sapiens, UniProt Q9Y6L6)
T1 construct: expressed in transfected cells; host or cells: A431 epidermoid carcinoma cells
T1 sequence (Q9Y6L6 1-691): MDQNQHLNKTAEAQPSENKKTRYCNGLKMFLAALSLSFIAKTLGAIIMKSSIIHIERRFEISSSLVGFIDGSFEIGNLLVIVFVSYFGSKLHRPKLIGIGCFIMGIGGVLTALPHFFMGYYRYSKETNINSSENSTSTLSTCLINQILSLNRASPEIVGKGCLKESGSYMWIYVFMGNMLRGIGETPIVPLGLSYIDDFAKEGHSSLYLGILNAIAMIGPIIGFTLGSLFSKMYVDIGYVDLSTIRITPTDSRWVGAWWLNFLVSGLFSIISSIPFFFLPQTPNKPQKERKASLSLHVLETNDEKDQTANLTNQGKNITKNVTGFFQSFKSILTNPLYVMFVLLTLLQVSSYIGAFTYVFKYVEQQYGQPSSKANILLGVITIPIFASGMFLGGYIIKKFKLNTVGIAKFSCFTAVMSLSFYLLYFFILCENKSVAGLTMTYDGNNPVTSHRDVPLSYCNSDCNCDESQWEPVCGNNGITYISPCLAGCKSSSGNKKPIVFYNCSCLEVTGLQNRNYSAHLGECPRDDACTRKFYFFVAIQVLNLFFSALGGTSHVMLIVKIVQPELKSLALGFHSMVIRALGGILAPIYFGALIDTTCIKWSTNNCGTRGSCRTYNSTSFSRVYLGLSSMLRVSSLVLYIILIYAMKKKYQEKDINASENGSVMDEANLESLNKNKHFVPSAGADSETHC
Assay: OATP uptake assay, OATP1B1
Format: cell-based
Conditions: human, 10 μM
Experimental: Cell lines: A431 cells overexpressing OATP1B1 or OATP2B1, and their mock transfected controls were generated and characterized previously. The cell lines were cultured in DMEM (Gibco, Thermofisher Scientific, Waltham, MA, USA), supplemented with 10% fetal bovine serum, 2 mM L-glutamine, 100 μg/mL streptomycin, and 100 units/mL penicillin at 37 °C and 5% CO2.
OATP uptake assay: Prior to the experiment, A431 cells (8 × 10^4/well) were seeded on 96-well plates in 200 μL cell culture medium. After 16–24 h, the cells were washed with 200 μL PBS, three times and pre-incubated with 20–200 μM HQNO2-L-Pro, or buffer without HQNO2-L-Pro for 5 min at 37 °C in 50 μL HBSS (Hank’s Balanced Salt Solution, pH 7.4; OATP1B1) or uptake buffer (pH 5.5; OATP2B1 [63]). The reaction was started by the addition of disulfopyrene (6,8-dihydroxy-1,3-pyrenedisulfonic acid disodium salt, Sigma, Darmstadt, Germany) at a final concentration of 10 μM (OATP1B1) or pyranine (8-hydroxypyrene-1,3-pyrenetrisulfonic acid trisodium salt, Sigma, Darmstadt, Germany) at a final concentration of 20 μM (OATP2B1), and the cells were further incubated at 37 °C for 10 min (OATP1B1) or 15 min (OATP2B1). The reaction was stopped by removing the supernatant after which the cells were washed three times with ice-cold PBS. Fluorescence (in 200 μL PBS) was determined using an Enspire plate reader (PerkinElmer, Waltham, MA, USA) with excitation/emission wavelengths of 460/510 nm. OATP-dependent transport was calculated by subtracting fluorescence measured in mock transfected cells. Transport activity was calculated based on the fluorescence signal in the absence (100%) of HQNO2-L-Pro. Experiments were repeated in at least three biological replicates.

## O=C(O)[C@@H]1CCCN1Cc1cc([N+](=O)[O-])c2cccnc2c1O [HQNO2-L-Pro, (2S)-1-((8-hydroxy-5-nitroquinolin-7-yl)methyl)pyrrolidin-1-ium-2-carboxylate]
A431 cells overexpressing OATP1B1, pH 7.4, probe disulfopyrene, 100 μM, absence of compound = 100%, n = 3, ± SD, read-out: transport activity % OATP1B1
  activity at 10 min, 100 µM: 88.1 ± 5.9%
A431 cells overexpressing OATP1B1, pH 7.4, probe disulfopyrene, absence of compound = 100%, n = 3, ± SD, read-out: transport activity % OATP1B1
  activity at 10 min, 10 µM: 106 ± 4.1%
Probe disulfopyrene, at 100 μM, A431 cells overexpressing OATP1B1, pH 7.4, read-out: inhibition of OATP1B1 function
  inhibition at 10 min, 100 µM: < 20%
